Patent publication US20250051277A1, “DELIVERY OF THERAPEUTIC ALKALOID COMPOUNDS” (Sensorium Therapeutics, Inc., priority 2021, published 2025)
pIC50: −log10 of the molar value. Read-outs that look alike come from different tables or passages of the source.

Key:
[1] = format: physicochemical; settings: SGF with pepsin, pH 1.5, 37° C., 0.5 mM
[2] = target: SERT (Homo sapiens (Human), UniProt P31645); format: cell-based; settings: stable 5HTT cells, 30 minutes at 37° C.
[3] = Description: Brain samples were homogenized with PBS (W/V, 1:3). Plasma/brain samples were mixed with acetonitrile containing internal standard. The samples were vortexed then centrifuged at 4 degrees Celsius for 15 minutes. The supernatant was diluted with water (1:2 V/V) and analyzed by LC/MS/MS for quantitative analysis. […] Area under the curve (AUC) was calculated and divided by dose to account for molecular weight difference of prodrug and metabolite (AUC/D).
[4] = Pharmacokinetics of 043 and 001 in mice after oral 043 (75 mg/kg); format: in vivo, male C57BL/6 mice
Description: Total twelve male mice were used in this study. […] The formulation vehicle used was normal saline.
The plasma and brain concentration-time data of 043 and 001 was used for the pharmacokinetic analysis.
The extraction procedure for plasma/brain samples and the spiked plasma/brain calibration standards were identical:
A 25 μL of study sample plasma/brain (dilution applied to some samples) or spiked plasma calibration standard was added to individual pre-labeled micro-centrifuge tubes followed by 100 μL of internal standard prepared in acetonitrile (Glipizide-500 ng/mL) was added except for blank, where 100 μL of acetonitrile was added. Samples were vortexed for 5 minutes. Samples were centrifuged for 10 minutes at a speed of 4000 rpm at 4° C. Following centrifugation, 100 μL of clear supernatant was transferred in 96 well plates and analyzed using LC-MS/MS.

[5] = analyte = label, single oral administration of 043, 75 mg/kg, male C57BL/6 mice
[6] = brain, analyte = label, single oral administration of 043, 75 mg/kg, male C57BL/6 mice
[7] = plasma, analyte = label, single oral administration of 043, 75 mg/kg, male C57BL/6 mice

| Compound | Condition 1 Conversion (%) ([1]; time 1 min) | Condition 1 Conversion (%) ([1]; time 5 min) | Condition 1 Conversion (%) ([1]; time 30 min) | Condition 1 Conversion (%) ([1]; time 1 h) | Condition 1 Conversion (%) ([1]; time 4 h) | Condition 1 Conversion (%) ([1]; time 24 h) | pIC50 [2] | conversion of prodrug to 001 in vivo ([3]; 2 mg/kg iv in rat) | 001 brain levels quantifiable up to ([3]; rat, in vivo) [h] | conversion of prodrug to 001 in vivo ([4]; 75 mg/kg po in mice) | Brain concentrations quantifiable up to [4, 5] [h] | brain exposure-Kp [4, 5] | AUClast [4, 6] [ng·h/mL] | Cmax [4, 6] [ng/mL] | Tmax [4, 6] [min] | AUClast [4, 7] [ng·h/mL] | Cmax [4, 7] [ng/mL] | Tmax [4, 7] [min] |
| --- | --- | --- | --- | --- | --- | --- | --- | --- | --- | --- | --- | --- | --- | --- | --- | --- | --- | --- |
| CO/N=C1\CC[C@@]2(c3ccc(OC)c(OC)c3)CCN(C)[C@H]2C1 [Compound 038, (E,3aS,7aS)-3a-(3,4-dimethoxyphenyl)-N-methoxy-1-methyl-2,3,4,5,7,7a-hexahydroindol-6-imine] | 0 | 0 | 1.3 | 11.9 | 31.3 | 49.9 | > 7.30 | – | – | – | – | – | – | – | – | – | – | – |
| CO/N=C1/CC[C@@]2(c3ccc(OC)c(OC)c3)CCN(C)[C@H]2C1 [Compound 035, (Z, 3aS,7aS)-3a-(3,4-dimethoxyphenyl)-N-methoxy-1-methyl-2,3,4,5,7,7a-hexahydroindol-6-imine] | 0 | 0 | 5.4 | 13.1 | 35.2 | 38.9 | > 7.30 | – | – | – | – | – | – | – | – | – | – | – |
| CCC(C)CC(=O)OC1=C[C@@H]2N(C)CC[C@]2(c2ccc(OC)c(OC)c2)CC1 (stereo partly drawn) [Compound 316, [(3aS,7aS)-3a-(3,4-dimethoxyphenyl)-1-methyl-3,4,5,7a-tetrahydro-2H-indol-6-yl]3-methyl pentanoate] | – | – | – | – | – | – | – | converts to 001 in vivo in rat | 3 | – | – | – | – | – | – | – | – | – |
| COc1ccc([C@@]23CCN(C)[C@@H]2CC2(CC3)SCCS2)cc1OC [Compound 046, (3′aR,7′aR)-3′a-(3,4-dimethoxyphenyl)-1′-methyl-spiro[1,3-dithiolane-2,6′-2,3,4,5,7,7a-hexahydroindole]] | 0 | 0 | 0 | 0 | 0 | 0 | 6.30 to 7.00 | – | – | – | – | – | – | – | – | – | – | – |
| COc1ccc([C@]23CCN(C)[C@H]2CC2(CC3)OCCO2)cc1OC [Compound 043] | 0 | 0 | 0 | 0 | 0 | 0 | > 7.30 | – | – | efficiently converts to 001 in vivo | 4 | < 1 | 1787.23 | 2684.81 | 30 | 2555.07 | 3392.53 | 30 |
| COc1ccc(C23CCN(C)C2CC2(CC3)OCCO2)cc1OC (centres unmarked) [Compound 044] | 0 | 0 | 0 | 0 | 0 | 0 | < 6.00 | – | – | – | – | – | – | – | – | – | – | – |
| COc1ccc([C@]23CCN(C)[C@H]2CC2(CC3)SCCS2)cc1OC [Compound 045, (3′aS,7′aS)-3′a-(3,4-dimethoxyphenyl)-1′-methyl-spiro[1,3-dithiolane-2,6′-2,3,4,5,7,7a-hexahydroindole]] | 0 | 0 | 0 | 0 | 0 | 0 | < 6.00 | – | – | – | – | – | – | – | – | – | – | – |
